# From ChEMBL document CHEMBL5729557, “5-membered heteroaryl carboxamide compounds for treatment of HBV” (2023)
# Assay: Assay Measuring Activity of Test Compounds on Viral Production from HepAD38 Cells: HepAD38 cells grown in a T-150 flask (Corning, cat #: 430825) with Growth Medium (DMEM/F12 (1:1) (Hyclone, cat #: SH30023.02), 1× Pen/Strep (Invitrogen, cat #: 15140-122), 10% FBS (Tissue Culture Biologics, cat #: 101), 250 μg/mL G418 (Alfa Aesar, cat #: J62671), 1 μg/mL Tetracycline (Teknova, cat #: T3320)) were detached with 0.25% trypsin-EDTA to (Invitrogen, cat #: 25200-056). Tetracycline-free treatment medium (15 mL DMEM/F12 (1:1) 1× Pen/step, with 2% FBS, Tet-system approved (Clontech, cat #: 631106) were then added to mix, transferred into a 50 ml conical tube (Falcon, cat #: 21008-918,) and spun at 1300 rpm for 5 min. Pelleted cells were then re-suspended/washed with 50 mL of 1×DPBS (Invitrogen, cat #: 14190-136) 2 times and 50 mL treatment medium twice. HepAD38 cells were then re-suspended with 10 mL of treatment medium, syringed and counted. Wells of 96-well clear bottom TC plate (Corning, cat #: 3904,) were seeded at 50,000 cells/well in 180 μL of treatment medium, and 20 μL of either 10% DMSO (Sigma, cat #: D4540) as controls or a 10× solution of test compounds in 10% DMSO in treatment media was added for a final compound concentration starting at 10 μM, and plates were incubated in 5% CO2 incubator at 37° C. for 5 days.Subsequently viral load production was assayed by quantitative PCR (qPCR) of the HBV core sequence. PCR reaction mixture containing forward primers HBV-f 5′-CTGTGCCTTGGGTGGCTTT-3′ (IDT DNA), Reverse primers HBV-r 5′-[…]-3′ (IDT DNA), Fluorescent TaqMan™ Probes HBV-probe 5′-FAM/AGCTCCAAA/ZEN/[…]/3IABkFQ-3′ (IDT DNA), 10 μL/well of PerfeCTa® qPCR ToughMix® (Quanta Biosciences, Cat #: 95114-05K), and 6 μL/well of DEPC water (Alfa Aesar, cat #: J62087) was prepared. […] of supernatant was added to 16 μL of the reaction mixture in a qPCR plate (Applied Biosytems, Cat #: 4309849), sealed with a film (Applied Biosystems, Cat #: 4311971), centrifuged for a few seconds, and subsequently run on an Applied Biosystems VIIA7. The PCR mixture was incubated at 45° C. for 5 min, then 95° C. for 10 min, followed by 40 cycles of 10 seconds at 95° C. and 20 seconds at 60° C. Viral load was quantified against known HBV DNA standards by using ViiA™ 7 Software. Viral load in the supernatant from wells with treated cells were compared against viral load in supernatant from DMSO control wells (>3 per plate). Cell viability assay was performed with CellTiter-Glo Luminescent Cell Viability Assay (Promega, cat #: G7573) with modification. Mixed appropriate amount of CellTiter-Glo (CTG) 1×DPBS in a 1:1 ratio, added 100 uL of the mixture to each well followed completely removal of all supernatant in each well without touching cell surface. Incubated the plate at room temperature for 10 min on an orbital shaker, and then read the plate with a plate reader (TECAN M1000 or Envision).
# Conditions: HePAD38
row,SMILES,EC50
1,Cn1nc([C@@H]2CC3CC(O)(CS(=O)(=O)CCO)C[C@H]3C2)c(C(=O)Nc2ccc(F)c(Cl)c2)c1N (stereo partly drawn),< 0.1 µM
2,Cn1nc([C@@H]2CC3CC(O)(CSC(C)(C)C)C[C@@H]3C2)c(C(=O)Nc2ccc(F)c(Cl)c2)c1N (stereo partly drawn),< 0.1 µM
3,Cn1nc(C2CC3CC(O)(CS(=O)(=O)CCCN4CCNC(=O)C4)CC3C2)c(C(=O)Nc2ccc(F)c(Cl)c2)c1N (stereo not drawn),in the range around 5.25 µM
4,Cn1nc([C@@H]2CC3CC(O)(C[S+]([O-])CC(F)(F)F)C[C@H]3C2)c(C(=O)Nc2ccc(F)c(Cl)c2)c1N (stereo partly drawn),< 0.1 µM
5,Cn1cc([C@@H]2CC[C@@H](c3nn(C)c(N)c3C(=O)Nc3ccc(F)c(Cl)c3)C2)cn1,in the range around 0.3 µM
6,Cn1nc([C@@H]2CC3CC(O)(CN4CCOCC4)C[C@@H]3C2)c(C(=O)Nc2ccc(F)c(Cl)c2)c1N (stereo partly drawn),in the range around 5.25 µM
7,Cn1nc(C2CC3CNCC3C2)c(C(=O)Nc2ccc(F)c(Cl)c2)c1N (stereo not drawn),in the range around 5.25 µM
8,CC(C)OCC1(O)CC2C[C@@H](c3nn(C)c(N)c3C(=O)Nc3ccc(F)c(Cl)c3)C[C@@H]2C1 (stereo partly drawn),in the range around 0.3 µM
9,Cn1nc([C@@H]2CC3CC(O)(CSCCO)C[C@@H]3C2)c(C(=O)Nc2ccc(F)c(Cl)c2)c1N (stereo partly drawn),< 0.1 µM
10,Cn1nc([C@@H]2CC3CC(O)(CSC(C)(C)C)C[C@H]3C2)c(C(=O)Nc2ccc(F)c(Cl)c2)c1N (stereo partly drawn),< 0.1 µM
11,Cn1nc(C2CC3CC(O)(COCC(F)(F)F)CC3C2)c(C(=O)Nc2ccc(F)c(Cl)c2)c1N (stereo not drawn),< 0.1 µM
12,Cn1nc([C@@H]2CC3CC(O)(CS(=O)(=O)C4CC4)C[C@@H]3C2)c(C(=O)Nc2ccc(F)c(Cl)c2)c1N (stereo partly drawn),< 0.1 µM
13,CCOC(=O)c1c(C2CCC(c3ccccc3)C2)noc1N (stereo not drawn),in the range around 0.3 µM
14,Cn1nc(C2CC3CC(O)(C(C)(C)O)CC3C2)c(C(=O)Nc2ccc(F)c(Cl)c2)c1N (stereo not drawn),< 0.1 µM
15,Cn1nc(C2CC3CNC(=O)CC3C2)c(C(=O)Nc2ccc(F)c(Cl)c2)c1N (stereo not drawn),< 0.1 µM
16,Cn1cc([C@H]2CC[C@H](c3nn(C)c(N)c3C(=O)Nc3ccc(F)c(Cl)c3)C2)cn1,in the range around 0.3 µM
17,Cn1nc([C@@H]2CC3CC(O)(CSCC(F)(F)F)C[C@@H]3C2)c(C(=O)Nc2ccc(F)c(Cl)c2)c1N (stereo partly drawn),< 0.1 µM
18,Cn1nc([C@@H]2CC3CC(O)(CS(=O)(=O)C(C)(C)C)C[C@H]3C2)c(C(=O)Nc2ccc(F)c(Cl)c2)c1N (stereo partly drawn),< 0.1 µM
19,Cn1nc(C2CC3CC(N4CCC4)CC3C2)c(C(=O)Nc2ccc(F)c(Cl)c2)c1N (stereo not drawn),in the range around 0.3 µM
20,Cn1nc([C@@H]2CC3CC(O)(CS(=O)(=O)C4CC4)C[C@H]3C2)c(C(=O)Nc2ccc(F)c(Cl)c2)c1N (stereo partly drawn),< 0.1 µM
21,Cn1nc([C@@H]2CC3CC(O)(CN4CCCCC4)C[C@@H]3C2)c(C(=O)Nc2ccc(F)c(Cl)c2)c1N (stereo partly drawn),in the range around 0.3 µM
22,Cn1nc([C@@H]2CC3CC(O)(CSCC(F)(F)F)C[C@H]3C2)c(C(=O)Nc2ccc(F)c(Cl)c2)c1N (stereo partly drawn),< 0.1 µM
23,COc1cc(-c2ncc[nH]2)ccc1[C@H]1CC[C@@H](c2nn(C)c(N)c2C(=O)Nc2ccc(F)c(Cl)c2)C1,in the range around 5.25 µM

row,SMILES,EC50
1,Cn1nc([C@@H]2CC3CC(O)(CS(=O)(=O)CCCN4CCNCC4=O)C[C@@H]3C2)c(C(=O)Nc2ccc(F)c(Cl)c2)c1N (stereo partly drawn),in the range around 5.25 µM
2,CCC1OC[C@]2(CC3C[C@H](c4nn(C)c(N)c4C(=O)Nc4ccc(F)c(Cl)c4)C[C@@H]3C2)O1 (stereo partly drawn),< 0.1 µM
3,CC(C)OCC1(O)CC2C[C@@H](c3nn(C)c(N)c3C(=O)Nc3ccc(F)c(Cl)c3)C[C@H]2C1 (stereo partly drawn),in the range around 5.25 µM
4,Cn1nc([C@@H]2CC3CC(O)(CN4CCOCC4)C[C@H]3C2)c(C(=O)Nc2ccc(F)c(Cl)c2)c1N (stereo partly drawn),in the range around 0.3 µM
5,CCN(CC)C1CC2CC(c3nn(C)c(N)c3C(=O)Nc3ccc(F)c(Cl)c3)CC2C1 (stereo not drawn),in the range around 0.3 µM
6,Cn1nc(C2CC3CC(NCCO)CC3C2)c(C(=O)Nc2ccc(F)c(Cl)c2)c1N (stereo not drawn),in the range around 0.3 µM
7,Cn1nc([C@@H]2CC3CC(O)(CSCCN4CCOCC4)C[C@H]3C2)c(C(=O)Nc2ccc(F)c(Cl)c2)c1N (stereo partly drawn),< 0.1 µM
8,Cn1nc(C2CC3CC(N4CCCC4)CC3C2)c(C(=O)Nc2ccc(F)c(Cl)c2)c1N (stereo not drawn),< 0.1 µM
9,Cn1nc([C@@H]2CC3CC(O)(CC(=O)O)C[C@@H]3C2)c(C(=O)Nc2ccc(F)c(Cl)c2)c1N (stereo partly drawn),< 0.1 µM
10,Cn1nc(C2CC3CC4(CNC(=O)C4)CC3C2)c(C(=O)Nc2ccc(F)c(Cl)c2)c1N (stereo not drawn),< 0.1 µM
11,CC(C)N1CC2CC(c3nn(C)c(N)c3C(=O)Nc3ccc(F)c(Cl)c3)CC2C1 (stereo not drawn),in the range around 5.25 µM
12,CCC1OCC2(CC3C[C@H](c4nn(C)c(N)c4C(=O)Nc4ccc(F)c(Cl)c4)C[C@@H]3C2)O1 (stereo partly drawn),< 0.1 µM
13,CCS(=O)(=O)CC1(O)CC2C[C@@H](c3nn(C)c(N)c3C(=O)Nc3ccc(F)c(Cl)c3)C[C@@H]2C1 (stereo partly drawn),< 0.1 µM
14,CN(C)S(=O)(=O)CC1(O)CC2CC(c3nn(C)c(N)c3C(=O)Nc3ccc(F)c(Cl)c3)CC2C1 (stereo not drawn),< 0.1 µM
15,Cn1nc(C2CC3CSCC3C2)c(C(=O)Nc2ccc(F)c(Cl)c2)c1N (stereo not drawn),< 0.1 µM
16,Cn1nc([C@@H]2CC3CC(O)(CS(=O)(=O)CCO)C[C@@H]3C2)c(C(=O)Nc2ccc(F)c(Cl)c2)c1N (stereo partly drawn),< 0.1 µM
17,CCS(=O)(=O)CC1(O)CC2C[C@@H](c3nn(C)c(N)c3C(=O)Nc3ccc(F)c(Cl)c3)C[C@H]2C1 (stereo partly drawn),< 0.1 µM
18,Cn1nc([C@@H]2CC3C[S+]([O-])C[C@@H]3C2)c(C(=O)Nc2ccc(F)c(Cl)c2)c1N (stereo partly drawn),in the range around 5.25 µM
19,CCC1OCC2(CC3C[C@H](c4nn(C)c(N)c4C(=O)Nc4ccc(F)c(Cl)c4)C[C@H]3C2)O1 (stereo partly drawn),< 0.1 µM
20,Cn1nc(C2CC3CC(O)(CC(=O)O)CC3C2)c(C(=O)Nc2ccc(F)c(Cl)c2)c1N (stereo not drawn),< 0.1 µM
21,Cn1nc(C2CCC(c3cnc(C(F)(F)F)s3)C2)c(C(=O)Nc2ccc(F)c(Cl)c2)c1N (stereo not drawn),in the range around 5.25 µM
22,Cn1nc([C@@H]2CC3CNC(=O)C[C@@H]3C2)c(C(=O)Nc2ccc(F)c(Cl)c2)c1N (stereo partly drawn),in the range around 0.3 µM
23,Cn1nc([C@@H]2CC3CC(O)(CS(C)(=O)=O)C[C@@H]3C2)c(C(=O)Nc2ccc(F)c(Cl)c2)c1N (stereo partly drawn),< 0.1 µM

row,SMILES,EC50
1,Cn1nc(C2CC3CC(O)(COC(F)F)CC3C2)c(C(=O)Nc2ccc(F)c(Cl)c2)c1N (stereo not drawn),< 0.1 µM
2,Cn1nc([C@@H]2CC3CC(O)(CSCCN4CCOCC4)C[C@@H]3C2)c(C(=O)Nc2ccc(F)c(Cl)c2)c1N (stereo partly drawn),< 0.1 µM
3,CC(C)C1(O)CC2C[C@@H](c3nn(C)c(N)c3C(=O)Nc3ccc(F)c(Cl)c3)C[C@H]2C1O (stereo partly drawn),< 0.1 µM
4,Cn1nc([C@@H]2CC3CC(O)(CN4CCCCC4)C[C@H]3C2)c(C(=O)Nc2ccc(F)c(Cl)c2)c1N (stereo partly drawn),in the range around 0.3 µM
5,Cn1nc(C2CC3CC(N)CC3C2)c(C(=O)Nc2ccc(F)c(Cl)c2)c1N (stereo not drawn),in the range around 0.3 µM
6,Cn1nc([C@@H]2CC3CC(O)(C[S+]([O-])CC(F)(F)F)C[C@@H]3C2)c(C(=O)Nc2ccc(F)c(Cl)c2)c1N (stereo partly drawn),< 0.1 µM
7,Cn1nc([C@@H]2CC3CC(O)(CS(C)(=O)=O)C[C@H]3C2)c(C(=O)Nc2ccc(F)c(Cl)c2)c1N (stereo partly drawn),< 0.1 µM
8,Cn1nc(C2CC3CC(N4CCNC(=O)C4)CC3C2)c(C(=O)Nc2ccc(F)c(C#N)c2)c1N (stereo not drawn),< 0.1 µM
9,Cn1nc([C@@H]2CC3CC(O)(CS(=O)(=O)CCCN4CCCCC4)C[C@H]3C2)c(C(=O)Nc2ccc(F)c(Cl)c2)c1N (stereo partly drawn),in the range around 0.3 µM
10,Cn1nc([C@H]2CC3CC(O)(C[S+]([O-])CC(F)(F)F)C[C@H]3C2)c(C(=O)Nc2ccc(F)c(Cl)c2)c1N (stereo partly drawn),< 0.1 µM
11,CN1CC2CC(c3nn(C)c(N)c3C(=O)Nc3ccc(F)c(Cl)c3)CC2C1 (stereo not drawn),in the range around 5.25 µM
12,Cn1nc(C2CCC(c3csc(C(F)(F)F)n3)C2)c(C(=O)Nc2ccc(F)c(Cl)c2)c1N (stereo not drawn),in the range around 5.25 µM
13,CS(=O)(=O)CC1(O)CC2CC(c3n[nH]c(N)c3C(=O)Nc3ccc(F)c(Cl)c3)CC2C1 (stereo not drawn),< 0.1 µM
14,Cn1nc([C@@H]2CC3CC(O)(CSCCO)C[C@H]3C2)c(C(=O)Nc2ccc(F)c(Cl)c2)c1N (stereo partly drawn),< 0.1 µM
15,COc1cc(-c2cn(C)cn2)ccc1[C@H]1CC[C@@H](c2nn(C)c(N)c2C(=O)Nc2ccc(F)c(Cl)c2)C1,in the range around 0.3 µM
16,COc1cc(-c2ncc[nH]2)ccc1[C@@H]1CC[C@@H](c2nn(C)c(N)c2C(=O)Nc2ccc(F)c(Cl)c2)C1,< 0.1 µM
17,Cn1nc([C@@H]2CC3CC(O)(CC(=O)O)C[C@H]3C2)c(C(=O)Nc2ccc(F)c(Cl)c2)c1N (stereo partly drawn),< 0.1 µM
18,Cn1nc([C@H]2CC3CC(O)(C[S+]([O-])CC(F)(F)F)C[C@@H]3C2)c(C(=O)Nc2ccc(F)c(Cl)c2)c1N (stereo partly drawn),< 0.1 µM
19,CNC1CC2CC(c3nn(C)c(N)c3C(=O)Nc3ccc(F)c(Cl)c3)CC2C1 (stereo not drawn),in the range around 0.3 µM
20,Cn1nc([C@@H]2CC3CC(O)(CS(=O)(=O)C(C)(C)C)C[C@@H]3C2)c(C(=O)Nc2ccc(F)c(Cl)c2)c1N (stereo partly drawn),< 0.1 µM
21,Cn1nc(C2CCC(c3cccnc3)C2)c(C(=O)Nc2ccc(F)c(Cl)c2)c1N (stereo not drawn),< 0.1 µM
22,Cn1nc([C@@H]2CC3C[S+]([O-])C[C@H]3C2)c(C(=O)Nc2ccc(F)c(Cl)c2)c1N (stereo partly drawn),in the range around 5.25 µM
